This is an account of results in patent publication US11033518B2, “Pharmaceutical composition containing niclosamide for treating axin-GSK3 interaction-related diseases” (BAOBAB PHARM CO., LTD., priority 2017, dated 2021).

Read-outs that look alike come from different tables or passages of the source. Ends that are not written are not given here. A value given as a limit tells only on which side of the number the result lay.

For assay [1] the following is noted: relative to paclitaxel; cited from earlier work.
Assay [2] deals with T1, recombinant GSK3 beta (Homo sapiens, UniProt P49841).
T1 construct: His; made in house; host or cells: Sf9 insect cells; This is inferred: 'the purified recombinant GSK3 beta' points back to the protein of b91
Description: Surface plasma resonance (SPR) analysis. It is filed as binding. The method, then: In order to confirm whether niclosamide directly binds to GSK3, surface plasma resonance (SPR) analysis was conducted.
SPR was carried out using ProteOn™ XPR36 Protein Interaction Array system (Bio-Rad Laboratories, Inc., CA, USA), and the purified recombinant GSK3 beta was immobilized on ProteOn GLH sensor chip. The niclosamide or 19-mer wild-type Axin peptide or mutant peptide (VEPQKAAEEAIHRAEAVQR, mutation underlined) was diluted with phosphate-buffered saline+Tween 20+1% DMSO at different concentrations respectively, and then was flowed into the chip at a rate of 100 μl/min, and the result was analyzed by ProteOn Manager Software 2.0 using the standard Langmuir models for fitting kinetic data. The complex formation ratio was represented by an association constant (ka, in the unit of M−1s−1), and the complex decrement ratio was represented by a dissociation constant (kd, in the unit of s−1) as the following equilibrium equation 1.
The high-affinity interaction is represented by the low dissociation constant, and gradual cognition and binding with interactant (rapid “on rate,” or high ka), and stability of complex formation (slow “off rate,” or low kd) are equal to the equation KD=kd/ka.

T1 sequence (P49841 whole entry): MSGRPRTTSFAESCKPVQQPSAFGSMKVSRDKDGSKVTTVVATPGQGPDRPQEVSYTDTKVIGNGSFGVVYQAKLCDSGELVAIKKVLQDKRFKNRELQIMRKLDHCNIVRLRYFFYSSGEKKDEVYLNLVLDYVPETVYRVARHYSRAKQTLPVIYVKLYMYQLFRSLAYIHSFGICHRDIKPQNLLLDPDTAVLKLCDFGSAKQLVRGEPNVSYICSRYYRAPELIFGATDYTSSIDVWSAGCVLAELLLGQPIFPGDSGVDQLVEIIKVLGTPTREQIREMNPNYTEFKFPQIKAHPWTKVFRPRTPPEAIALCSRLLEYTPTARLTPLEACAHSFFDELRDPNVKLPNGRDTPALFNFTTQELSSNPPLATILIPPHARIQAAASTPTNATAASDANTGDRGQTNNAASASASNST

Turning to `CC[C@@H](C(=O)[C@@H](C)[C@@H](O)[C@H](C)[C@@H]1O[C@@H]([C@@H](CC)C(=O)O)CC[C@@H]1C)[C@H]1O[C@]2(C=C[C@@H](O)[C@]3(CC[C@@](C)([C@H]4CC[C@](O)(CC)[C@H](C)O4)O3)O2)[C@H](C)C[C@@H]1C` [Salinomycin], the “potency in inhibiting cancer differentiation in proportion to paclitaxel” value in assay [1] is on record as “up to 100 times”.

For `CC[C@H](C)[C@H](NC(=O)[C@H](CC(C)C)NC(=O)[C@H](CCC(=O)O)NC(=O)[C@H](CCC(=O)O)NC(=O)[C@H](C)NC(=O)[C@H](Cc1ccccc1)NC(=O)[C@H](CCCCN)NC(=O)[C@H](CCC(N)=O)NC(=O)[C@@H]1CCCN1C(=O)[C@H](CCC(=O)O)NC(=O)[C@@H](N)C(C)C)C(=O)N[C@@H](Cc1c[nH]cn1)C(=O)N[C@@H](CCCNC(=N)N)C(=O)N[C@@H](CC(C)C)C(=O)N[C@@H](CCC(=O)O)C(=O)N[C@@H](C)C(=O)N[C@H](C(=O)N[C@@H](CCC(N)=O)C(=O)N[C@@H](CCCNC(=N)N)C(=O)O)C(C)C` [wild-type Axin peptide, VEPQKFAEELIHRLEAVQR], in assay [2] (immobilized GSK3 beta, read-out: Equilibrium dissociation constant, KD), the Kd was 35 µM.

With “VEPQKAAEEAIHRAEAVQR [mutant Axin peptide, VEPQKAAEEAIHRAEAVQR]”, the Kd in assay [2] (immobilized GSK3 protein, read-out: binding to GSK3 (could not bind up to)) is above 100 µM.
